20 compounds from US20240018150A1 can be followed below.

One assay deals with TMD8 cells. Kind of assay: Cell assay, in-vitro inhibition of TMD8 cells (CellTiter-Glo). The class given is cell-based. As to conditions: Homo sapiens, 2000 cells/well, 72 hrs, read-out: TMD8 (IC50, in-vitro inhibitory test on cells). How it is done: (§1) Plating: The cells were suspended in serum-free medium and counted with automatic cell counter. According to the seeding density, the cell suspension was diluted to the required density. 95 μL cell (2000 cells/well) was added to each well, and incubated at 5% CO2 and 37° C.
(§2) Preparation of compound solution: The compound was prepared into a diluted solution of 1000× final concentration with dimethyl sulfoxide. The test concentrations of the compound were 10000, 3333.33, 1111.11, 370.37, 123.46, 41.15, 13.72, 4.57, 1.52, and 0.51 nM. The compound was diluted with the culture medium to prepare a compound solution of 20× final concentration. 5 uL of the compound solution was added to each well, and the same volume of dimethyl sulfoxide was added to the control well. The cells were incubated at 37° C. and 5% CO2 for 72 hrs.
(§3) Detection: The cell plate equilibrated to room temperature, 40 μl of CellTiter-Glo® reagent was added to each well, shaken for 2 min, allowed to stand for 10 min, and detected with SpectraMax Paradigm.
(§4) Data Analysis • (1) The IC50 value was calculated using GraphPad Prism 5. • (2) % Inh=(Max signal−Compound signal)/(Max signal−Min signal)×100. • (3) Max signal was a value of the positive control well in which only DMSO of the same volume with the compound solution was present. • (4) Min signal was a value of the negative control well in which only the culture medium was present.
(In general: Cellular ATP, detected with luciferase, serves as a proxy for viable cell number.)

For assay [1], the system named is Ba/F3-BCR-BTK-C481S cells. The assay can be described thus: Cell assay, in-vitro inhibition of Ba/F3-BCR-BTK-C481S cells (CellTiter-Glo). Particulars: 2000 cells/well, 72 hrs, read-out: Ba/F3-BCR-BTK-C481S (IC50, in-vitro inhibitory test on cells). It counts as cell-based. The protocol:
as §1, §2, §3, §4

The target in a further assay is BTK kinase (Homo sapiens, UniProt Q06187). The assay can be described thus: Inhibitory activity test on BTK kinase (electrophoretic mobility shift assay). The class given is biochemical. As to conditions: Caliper EZ ReaderII, enzyme and compound 10 min at room temperature, read-out: BTK (IC50, in-vitro inhibitory test on kinase).
Sequence of BTK kinase (Q06187 whole entry): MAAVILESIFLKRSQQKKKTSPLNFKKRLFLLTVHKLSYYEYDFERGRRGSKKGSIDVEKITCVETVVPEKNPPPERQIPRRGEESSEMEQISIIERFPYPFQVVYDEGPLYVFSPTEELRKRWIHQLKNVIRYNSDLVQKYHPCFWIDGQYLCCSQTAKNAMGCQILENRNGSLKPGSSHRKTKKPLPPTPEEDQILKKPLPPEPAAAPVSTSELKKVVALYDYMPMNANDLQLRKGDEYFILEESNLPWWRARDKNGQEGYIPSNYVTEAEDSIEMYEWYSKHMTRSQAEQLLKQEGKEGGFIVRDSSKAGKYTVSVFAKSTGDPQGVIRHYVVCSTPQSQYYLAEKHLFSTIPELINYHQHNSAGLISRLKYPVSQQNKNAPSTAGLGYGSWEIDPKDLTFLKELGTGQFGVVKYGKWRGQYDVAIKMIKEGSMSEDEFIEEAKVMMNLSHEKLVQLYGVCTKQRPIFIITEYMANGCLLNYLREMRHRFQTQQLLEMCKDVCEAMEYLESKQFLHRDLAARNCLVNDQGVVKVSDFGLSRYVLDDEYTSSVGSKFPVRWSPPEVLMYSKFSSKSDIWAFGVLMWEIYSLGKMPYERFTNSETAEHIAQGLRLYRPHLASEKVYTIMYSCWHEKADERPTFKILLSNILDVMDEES

Turning to `O=C(c1ccc(Oc2ccccc2)cc1Cl)c1c[nH]c2ncnc(N[C@@H]3CC[C@@H](CO)OC3)c12` [ARQ531, reference compound], the results for the IC50 (in the assay on TMD8 cells; in assay [1]) were 111 nM and 447 nM, respectively. As for `O=C(c1ccc(Oc2ccccc2)cc1Cl)c1c[nH]c2nccc(N[C@H]3CC[C@H](C(=O)O)CC3)c12` [Compound I-5, (1r, 4r)-4-((3-(2-chloro-4-phenoxybenzoyl)-1H-pyrrolo[2,3-b]pyridin-4-yl)amino)cyclohexane-1-carboxylic acid], at BTK kinase, the IC50 is 9 nM.

Take `O=C(c1ccc(Oc2ccccc2)cc1Cl)c1c[nH]c2nccc(N[C@H]3CC[C@@H](C(=O)O)CC3)c12` [Compound I-6, (1s, 4s)-4-((3-(2-chloro-4-phenoxybenzoyl)-1H-pyrrolo[2,3-b]pyridin-4-yl)amino)cyclohexane-1-carboxylic acid]: the IC50 on BTK kinase is 2.7 nM. As for `O=C(c1ccc(Oc2ccccc2)cc1)c1c[nH]c2nccc(N[C@H]3CC[C@@H](C(=O)O)CC3)c12` [Compound I-8, (1s, 4s)-4-((3-(4-phenoxybenzoyl)-1H-pyrrolo[2,3-b]pyridin-4-yl)amino)cyclohexane-1-carboxylic acid], the IC50 at BTK kinase was 7.1 nM.

Take `O=C(c1ccc(Oc2ccccc2)cc1Cl)c1c[nH]c2nccc(N[C@H]3C[C@@H](C(=O)O)C3)c12` [Compound I-11, (1s, 3s)-3-((3-(2-chloro-4-phenoxybenzoyl)-1H-pyrrolo[2,3-b]pyridin-4-yl)amino)cyclobutane-1-carboxylic acid]: the IC50 at BTK kinase came to 6.2 nM. For `O=C(c1ccc(Oc2ccccc2)cc1Cl)c1c[nH]c2nccc(NC3CCNCC3)c12` [Compound I-22, (2-chloro-4-phenoxyphenyl)(4-(piperidin-4-ylamino)-1H-pyrrolo[2,3-b]pyridin-3-yl)methanone], the IC50 on BTK kinase worked out at 9.5 nM. In the case of `O=C(c1ccc(Oc2ccccc2)cc1Cl)c1c[nH]c2nccc(N[C@@H]3CCCNC3)c12` [Compound I-23, (R)-(2-chloro-4-phenoxyphenyl)(4-(piperidin-3-ylamino)-1H-pyrrolo[2,3-b]pyridin-3-yl)methanone], the IC50 at BTK kinase worked out at 48 nM. Take `O=C(c1ccc(Oc2ccccc2)cc1Cl)c1c[nH]c2nccc(N[C@H]3CC[C@H](O)CC3)c12` [Compound I-24, (2-chloro-4-phenoxyphenyl)(4-(((1r, 4r)-4-hydroxycyclohexyl)amino)-1H-pyrrolo[2,3-b]pyridin-3-yl)methanone]: the IC50 on BTK kinase is 52 nM. For the compound `O=C(c1ccc(Oc2ccccc2)cc1Cl)c1c[nH]c2nccc(NCCOCCO)c12` [Compound I-28, (2-chloro-4-phenoxyphenyl)(4-((2-(2-hydroxyethoxy)ethyl)amino)-1H-pyrrolo[2,3-b]pyridin-3-yl)methanone], on BTK kinase, the IC50 stood at 110 nM. Consider `O=C(c1ccc(Oc2ccccc2)cc1Cl)c1c[nH]c2nccc(N[C@H]3CC[C@H](CO)CC3)c12` [Compound I-30, (2-chloro-4-phenoxyphenyl)(4-(((1r, 4r)-4-(hydroxymethyl)cyclohexyl)amino)-1H-pyrrolo[2,3-b]pyridin-3-yl)methanone], for which the IC50 on BTK kinase was determined as 95 nM. Turning to `O=C(c1ccc(Oc2ccccc2)cc1Cl)c1c[nH]c2nccc(N[C@H]3CC[C@@H](CO)CC3)c12` [Compound I-31, (2-chloro-4-phenoxyphenyl)(4-(((1s, 4s)-4-(hydroxymethyl)cyclohexyl)amino)-1H-pyrrolo[2,3-b]pyridin-3-yl)methanone], on BTK kinase, the IC50 is 28 nM. With `O=C(c1ccc(Oc2ccccc2)cc1Cl)c1c[nH]c2nccc(N[C@@H]3CC[C@@H](CO)OC3)c12` [Compound I-32, (2-chloro-4-phenoxyphenyl)(4-(((3R, 6S)-6-(hydroxymethyl)tetrahydro-2H-pyran-3-yl)amino)-1H-pyrrolo[2,3-b]pyridin-3-yl)methanone], the IC50 at BTK kinase is 11 nM. Turning to `O=C(c1ccc(Oc2ccccc2)cc1)c1c[nH]c2nccc(N[C@H]3CC[C@@H](CO)CC3)c12` [Compound I-33, (4-(((1s, 4s)-4-(hydroxymethyl)cyclohexyl)amino)-1H-pyrrolo[2,3-b]pyridin-3-yl)(4-phenoxyphenyl)methanone], the IC50 at BTK kinase stood at 80 nM. As for `CNC(=O)[C@H]1CC[C@H](Nc2ccnc3[nH]cc(C(=O)c4ccc(Oc5ccccc5)cc4Cl)c23)CC1` [Compound I-35, (1r, 4r)-4-((3-(2-chloro-4-phenoxybenzoyl)-1H-pyrrolo[2,3-b]pyridin-4-yl)amino)-N-methylcyclohexane-1-carboxamide], at BTK kinase, the IC50 worked out at 22 nM. As for `NS(=O)(=O)N1CCC(Nc2ccnc3[nH]cc(C(=O)c4ccc(Oc5ccccc5)cc4Cl)c23)CC1` [Compound I-37, 4-((3-(2-chloro-4-phenoxybenzoyl)-1H-pyrrolo[2,3-b]pyridin-4-yl)amino)piperidin-1-sulfonamide], the IC50 on BTK kinase amounted to 141 nM. In the case of `CS(=O)(=O)N1CCC(Nc2ccnc3[nH]cc(C(=O)c4ccc(Oc5ccccc5)cc4Cl)c23)CC1` [Compound I-38, (2-chloro-4-phenoxyphenyl)(4-((1-(methanesulfonyl)piperidin-4-yl)amino)-1H-pyrrolo[2,3-b]pyridin-3-yl)methanone], the IC50 on BTK kinase turned out to be 242 nM.

`N[C@H]1CC[C@H](Nc2ccnc3[nH]cc(C(=O)c4ccc(Oc5ccccc5)cc4Cl)c23)CC1` [Compound I-73, (4-(((1r, 4r)-4-aminocyclohexyl)amino)-1H-pyrrolo[2,3-b]pyridin-3-yl)(2-chloro-4-phenoxyphenyl)methanone]: at BTK kinase, the IC50 worked out at 16 nM. On to `N[C@H]1CC[C@@H](Nc2ccnc3[nH]cc(C(=O)c4ccc(Oc5ccccc5)cc4Cl)c23)CC1` [Compound I-74, (4-(((1s, 4s)-4-aminocyclohexyl)amino)-1H-pyrrolo[2,3-b]pyridin-3-yl)(2-chloro-4-phenoxyphenyl)methanone], for which the IC50 on BTK kinase turned out to be 2.8 nM; with TMD8 cells, 65.9 nM; in assay [1] it was 52 nM. On to `CC(=O)N[C@H]1CC[C@@H](Nc2ccnc3[nH]cc(C(=O)c4ccc(Oc5ccccc5)cc4Cl)c23)CC1` [Compound I-87, N-((1s, 4s)-4-((3-(2-chloro-4-phenoxybenzoyl)-1H-pyrrolo[2,3-b]pyridin-4-yl)amino)cyclohexyl)acetamide], for which the IC50 was found to be 114 nM in the assay with TMD8 cells and 103 nM in assay [1]. As for `CN[C@H]1CC[C@@H](Nc2ccnc3[nH]cc(C(=O)c4ccc(Oc5ccccc5)cc4Cl)c23)CC1` [Compound I-89], the IC50 in the assay with TMD8 cells came out at 97.7 nM; in assay [1], 68.6 nM.
